According to patent US7262220B2, “Urea- and urethane-substituted acylureas, process for their preparation and their use” (Sanofi-Aventis Deutschland GmbH, priority 2002, dated 2007):
Read-outs that look alike come from different tables or passages of the source.

Biological target: T1, human glycogen phosphorylase a (Homo sapiens, UniProt P06737)
T1 sequence (P06737 1-847): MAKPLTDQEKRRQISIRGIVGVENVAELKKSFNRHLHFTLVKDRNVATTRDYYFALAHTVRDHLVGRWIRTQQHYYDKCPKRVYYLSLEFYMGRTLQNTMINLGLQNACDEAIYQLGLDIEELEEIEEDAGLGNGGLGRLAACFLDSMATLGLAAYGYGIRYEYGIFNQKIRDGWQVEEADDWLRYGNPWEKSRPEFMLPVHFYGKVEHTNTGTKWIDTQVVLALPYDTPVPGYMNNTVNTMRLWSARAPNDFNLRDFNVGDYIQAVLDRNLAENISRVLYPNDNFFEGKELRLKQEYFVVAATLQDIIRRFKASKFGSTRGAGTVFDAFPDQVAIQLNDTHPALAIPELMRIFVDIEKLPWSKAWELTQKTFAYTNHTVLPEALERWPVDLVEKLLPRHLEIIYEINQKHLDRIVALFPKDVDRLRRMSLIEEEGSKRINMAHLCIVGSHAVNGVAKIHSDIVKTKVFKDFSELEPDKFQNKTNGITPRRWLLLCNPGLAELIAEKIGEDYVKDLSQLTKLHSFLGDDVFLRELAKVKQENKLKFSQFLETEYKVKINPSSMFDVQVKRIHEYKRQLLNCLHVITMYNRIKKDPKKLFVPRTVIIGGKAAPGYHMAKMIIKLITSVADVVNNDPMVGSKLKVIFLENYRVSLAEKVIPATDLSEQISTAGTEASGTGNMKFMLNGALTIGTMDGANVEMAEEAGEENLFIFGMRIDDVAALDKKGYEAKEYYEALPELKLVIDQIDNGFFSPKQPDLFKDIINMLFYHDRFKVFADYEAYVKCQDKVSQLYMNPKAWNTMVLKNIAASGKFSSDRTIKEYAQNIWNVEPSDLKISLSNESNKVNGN
Test: Glycogen phosphorylase a activity assay
Type: biochemical
Settings: read-out: % inhibition at 10 μM
Method: Glycogen Phosphorylase a Activity Assay
The effect of compounds on the activity of the active form of glycogen phosphorylase (GPa) was measured in the reverse direction by following the synthesis of glycogen from glucose 1-phosphate by determining the liberation of inorganic phosphate. All the reactions were carried out as duplicate determinations in microtiter plates with 96 wells (Half Area Plates, Costar No 3696), measuring the change in absorption owing to the formation of the reaction product at the wavelength specified hereinafter in a Multiskan Ascent Elisa Reader (Lab Systems, Finland). In order to measure the GPa enzymic activity in the reverse direction, the general method of Engers et al. (Engers H D, Shechosky S, Madsen N B, Can J Biochem 1970 July; 48(7):746-754) was used to measure the conversion of glucose 1-phosphate into glycogen and inorganic phosphate, with the following modifications: human glycogen phosphorylase a (for example with 0.76 mg of protein/ml (Aventis Pharma Deutschland GmbH), dissolved in buffer solution E (25 mM β-glycerophosphate, pH 7.0, 1 mM EDTA and 1 mM dithiothreitol) was diluted with buffer T (50 mM hepes, pH 7.0, 100 mM KCl, 2.5 mM EDTA, 2.5 mM MgCl26H2O) and addition of 5 mg/ml glycogen to a concentration of 10 μg of protein/ml. […] The baseline glycogen phosphorylase a activity in the absence of test substance was determined by adding 10 μl of buffer solution T (0.1% DMSO). The mixture was incubated at room temperature for 40 minutes, and the liberated […] was measured by the general method of Drueckes et al. (Drueckes P, Schinzel R, Palm D, Anal Biochem 1995 Sep. 1; 230(1):173-177) with the following modifications: 50 μl of a stop solution of 7.3 mM ammonium molybdate, 10.9 mM zinc acetate, 3.6% ascorbic acid, 0.9% SDS are added to 50 μl of the enzyme mixture. After incubation at 45° C. for 60 minutes, the absorption at 820 nm was measured. […]

[1] = 10 μM test substance, GPa activity measured in the reverse direction (liberation of inorganic phosphate), duplicate determinations

Compound | inhibition at 10 µM [1] [%] | inhibition at 10 µM [%]
COC(=O)Nc1ccc(C(=O)O)cc1NC(=O)NC(=O)c1ccc(F)cc1Cl [Example 3, 3-[3-(2-Chloro-4-fluorobenzoyl)ureido]-4-methoxycarbonylaminobenzoic acid] | 53 | 
COC(=O)/C=C/c1ccc(NC(=O)Oc2ccc(Cl)cc2)cc1NC(=O)NC(=O)c1cc(F)c(F)cc1Cl [Example 110, Methyl (E)-3-[2-[3-(2-chloro-4,5-difluorobenzoyl)ureido]-4-(4-chloro-phenoxycarbonylamino)phenyl]acrylate] |  | 73
COc1cc2c(=O)[nH]c(=O)[nH]c2cc1NC(=O)NC(=O)c1cc(F)c(F)cc1Cl [Example 132, 1-(2-Chloro-4,5-difluorobenzoyl)-3-(6-methoxy-2,4-dioxo-1,2,3,4-tetrahydro-quinazolin-7-yl)urea] | 97 | 
